From article PMC7468108 (Communications Biology, 2020)

Columns and labels:
Aβ42 = molecular target: T1, Aβ42 (Homo sapiens, UniProt P05067); assay: TEM of Aβ42 fibrils formed with the tested molecules; details: 5-fold excess of compound
T1 construct: purchased rPeptide (USA)
Method: These fibrils also generated the amyloid specific gold-green birefringence upon staining with Congo red (Fig. 3, bottom panel and Supplementary Fig. 6)[74].
Samples (10 µL) were placed for 2 min on 400-mesh copper grids covered with carbon-stabilized Formvar film (Electron Microscopy Sciences (EMS), Hatfield, PA). Excess fluid was removed, and grids were negatively stained with 2% uranyl acetate solution (10 µL) for 2 min. After excess fluid removal, the samples were visualized using a JEM-1400 TEM (JEOL), operated at 80 kV.

[1] = molecular target: T2, pre-formed fibrils of Aβ42 (Homo sapiens, UniProt P05067); assay: ThT-binding assay, disaggregation of pre-formed Aβ42 fibrils; type: biochemical; details: for % amyloid of Aβ42: disaggregation of pre-formed Aβ42 (10 µM) fibrils
T2 construct: purchased rPeptide (USA)
T2 sequence (P05067 672-713 limits assumed): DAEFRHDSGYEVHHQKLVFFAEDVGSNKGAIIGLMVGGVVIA
Method: (§1) For efficient treatment of proteinopathies it may be advantageous to disassemble amyloid aggregates/fibrils which are usually already present at the time of diagnosis[75]–[77]. […] Then, various doses of the hybrid molecules were added to the pre-formed fibrils and the mixtures were incubated for additional 10 h. The process of disaggregation was monitored by ThT-binding assay, CD spectroscopy, TEM and Congo red staining (Fig. 5).
The experiment was performed according to the previous report. […] Kinetics fluorescence data were collected at 37 °C in triplicate using Infinite M200 microplate reader (Tecan, Switzerland), with measurements acquired at 15 min intervals. Excitation and emission wavelengths were set at 440 nm and 485 nm, respectively.

[2] = molecular target: T3, pre-formed fibrils of hIAPP (Homo sapiens, UniProt P10997); assay: CD spectroscopy of pre-formed hIAPP fibrils with the tested molecules; details: hIAPP : molecule (1:5)
T3 construct: hIAPP is a 37-amino acid neuroendocrine peptide hormone; purchased Peptide 2.0 (USA)
T3 sequence (P10997 34-70 limits assumed): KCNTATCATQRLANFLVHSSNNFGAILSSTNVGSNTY
Method: as §1
The blank was subtracted from the acquired CD spectra. For the CD study in the presence of the tryptophan-galacosylamine molecules, the spectra of hybrid molecules were also recorded separately and subtracted from the respective sample spectra. The normalized data were plotted using Origin pro 2015 software.

T1 sequence (P05067 672-713 limits assumed): as the sequence (P05067 672-713 limits assumed) above

NC(Cc1c[nH]c2ccccc12)C(=O)NC(Cc1c[nH]c2ccccc12)C(=O)O (stereo not drawn) [WW]
Aβ42 fibril morphology (TEM), in words (Aβ42): did not display any effect | increase of ThT fluorescence intensity of pre-formed Aβ42 fibrils ([1]; compound added to pre-formed fibrils): ~ 20% | % amyloid of Aβ42 ([1]; molar ratio Aβ42:tested molecule (1:1)): 105.449% | % amyloid of Aβ42 ([1]; molar ratio Aβ42:tested molecule (1:5)): 118.857% | % amyloid of Aβ42 ([1]; molar ratio Aβ42:tested molecule (5:1)): 102.097% | Normalized CD spectra ([2]; wavelength 190.00): -1159830.00 | Normalized CD spectra ([2]; wavelength 190.50): -799592.59 | Normalized CD spectra ([2]; wavelength 191.00): -466296.57 | Normalized CD spectra ([2]; wavelength 191.50): -159943.13 | Normalized CD spectra ([2]; wavelength 192.00): 119467.75 | Normalized CD spectra ([2]; wavelength 192.50): 371936.05 | Normalized CD spectra ([2]; wavelength 193.00): 597461.77 | Normalized CD spectra ([2]; wavelength 193.50): 796044.93 | Normalized CD spectra ([2]; wavelength 194.00): 967685.51 | Normalized CD spectra ([2]; wavelength 194.50): 1212380.23 | Normalized CD spectra ([2]; wavelength 195.00): 1290140.24 | Normalized CD spectra ([2]; wavelength 195.50): 1323180.24 | Normalized CD spectra ([2]; wavelength 196.00): 1393960.26 | Normalized CD spectra ([2]; wavelength 196.50): 1424490.23 | Normalized CD spectra ([2]; wavelength 197.00): 1413320.40 | Normalized CD spectra ([2]; wavelength 197.50): 1387150.18 | Normalized CD spectra ([2]; wavelength 198.00): 1299100.11 | Normalized CD spectra ([2]; wavelength 198.50): 1256630.40 | Normalized CD spectra ([2]; wavelength 199.00): 1187490.08 | Normalized CD spectra ([2]; wavelength 199.50): 1142090.27 | Normalized CD spectra ([2]; wavelength 200.00): 1101290.79 | Normalized CD spectra ([2]; wavelength 200.50): 1045740.12 | Normalized CD spectra ([2]; wavelength 201.00): 960554.59 | Normalized CD spectra ([2]; wavelength 201.50): 884170.56 | Normalized CD spectra ([2]; wavelength 202.00): 793224.29 | Normalized CD spectra ([2]; wavelength 202.50): 710397.29 | Normalized CD spectra ([2]; wavelength 203.00): 623023.93 | Normalized CD spectra ([2]; wavelength 203.50): 548091.19 | Normalized CD spectra ([2]; wavelength 204.00): 460178.98 | Normalized CD spectra ([2]; wavelength 204.50): 362812.96 | Normalized CD spectra ([2]; wavelength 205.00): 267913.28 | Normalized CD spectra ([2]; wavelength 205.50): 183033.71 | Normalized CD spectra ([2]; wavelength 206.00): 99125.43 | Normalized CD spectra ([2]; wavelength 206.50): 21202.95 | Normalized CD spectra ([2]; wavelength 207.00): -58441.14 | Normalized CD spectra ([2]; wavelength 207.50): -134432.91 | Normalized CD spectra ([2]; wavelength 208.00): -202839.97 | Normalized CD spectra ([2]; wavelength 208.50): -260187.32 | Normalized CD spectra ([2]; wavelength 209.00): -323573.72 | Normalized CD spectra ([2]; wavelength 209.50): -382447.61 | Normalized CD spectra ([2]; wavelength 210.00): -437399.79 | Normalized CD spectra ([2]; wavelength 210.50): -489520.86 | Normalized CD spectra ([2]; wavelength 211.00): -539599.27 | Normalized CD spectra ([2]; wavelength 211.50): -576249.85 | Normalized CD spectra ([2]; wavelength 212.00): -613623.93 | Normalized CD spectra ([2]; wavelength 212.50): -639995.46 | Normalized CD spectra ([2]; wavelength 213.00): -663323.35 | Normalized CD spectra ([2]; wavelength 232.00): -332238.92 | Normalized CD spectra ([2]; wavelength 232.50): -324045.26 | Normalized CD spectra ([2]; wavelength 233.00): -310464.00 | Normalized CD spectra ([2]; wavelength 233.50): -306656.69 | Normalized CD spectra ([2]; wavelength 234.00): -298160.53 | Normalized CD spectra ([2]; wavelength 234.50): -288025.21 | Normalized CD spectra ([2]; wavelength 235.00): -277617.45 | Normalized CD spectra ([2]; wavelength 235.50): -265647.30 | Normalized CD spectra ([2]; wavelength 236.00): -250898.81 | Normalized CD spectra ([2]; wavelength 236.50): -242222.13 | Normalized CD spectra ([2]; wavelength 237.00): -231613.39 | Normalized CD spectra ([2]; wavelength 237.50): -223355.72 | Normalized CD spectra ([2]; wavelength 238.00): -218172.86 | Normalized CD spectra ([2]; wavelength 238.50): -206535.49 | Normalized CD spectra ([2]; wavelength 239.00): -191737.01 | Normalized CD spectra ([2]; wavelength 239.50): -180445.52 | Normalized CD spectra ([2]; wavelength 240.00): -179664.78 | Normalized CD spectra ([2]; wavelength 240.50): -172296.10 | Normalized CD spectra ([2]; wavelength 241.00): -162102.32 | Normalized CD spectra ([2]; wavelength 241.50): -148455.67 | Normalized CD spectra ([2]; wavelength 242.00): -149233.62 | Normalized CD spectra ([2]; wavelength 242.50): -139443.53 | Normalized CD spectra ([2]; wavelength 243.00): -134411.20 | Normalized CD spectra ([2]; wavelength 243.50): -135270.09 | Normalized CD spectra ([2]; wavelength 244.00): -127740.28 | Normalized CD spectra ([2]; wavelength 244.50): -125334.77 | Normalized CD spectra ([2]; wavelength 245.00): -119297.62 | Normalized CD spectra ([2]; wavelength 245.50): -115863.12 | Normalized CD spectra ([2]; wavelength 246.00): -113285.78 | Normalized CD spectra ([2]; wavelength 246.50): -114529.09 | Normalized CD spectra ([2]; wavelength 247.00): -113972.59 | Normalized CD spectra ([2]; wavelength 247.50): -115521.93 | Normalized CD spectra ([2]; wavelength 248.00): -110033.91 | Normalized CD spectra ([2]; wavelength 248.50): -107626.80 | Normalized CD spectra ([2]; wavelength 249.00): -94087.61 | Normalized CD spectra ([2]; wavelength 249.50): -91943.44 | Normalized CD spectra ([2]; wavelength 250.00): -91987.89 | Normalized CD spectra ([2]; wavelength 250.50): -83982.51 | Normalized CD spectra ([2]; wavelength 251.00): -78786.13 | Normalized CD spectra ([2]; wavelength 251.50): -77492.66 | Normalized CD spectra ([2]; wavelength 252.00): -81506.91 | Normalized CD spectra ([2]; wavelength 252.50): -74477.64 | Normalized CD spectra ([2]; wavelength 253.00): -78503.70 | Normalized CD spectra ([2]; wavelength 253.50): -82822.05 | Normalized CD spectra ([2]; wavelength 254.00): -81558.46 | Normalized CD spectra ([2]; wavelength 254.50): -84392.86 | Normalized CD spectra ([2]; wavelength 255.00): -84114.71 | Normalized CD spectra ([2]; wavelength 255.50): -85462.25 | Normalized CD spectra ([2]; wavelength 256.00): -87106.95 | Normalized CD spectra ([2]; wavelength 256.50): -89048.81 | Normalized CD spectra ([2]; wavelength 257.00): -91287.84 | Normalized CD spectra ([2]; wavelength 257.50): -93824.03 | Normalized CD spectra ([2]; wavelength 258.00): -96657.38
